What was measured:
HIV-1 PR = settings: Blumenstein et al. 1989; cited from earlier work
HIV-2 PR = settings: Blumenstein et al. 1989; cited from earlier work
HIV-1 protease = target: T1, HIV-1 protease (Human immunodeficiency virus type 1 group M subtype B, UniProt P03369); test: HIV-1 PR inhibition (HPLC assay of HIV substrate IV cleavage after preincubation with inhibitor); type: biochemical
T1 construct: each of the identical 99 amino acid subunits contributes a single aspartyl residue to the catalytic site; made in house; host or cells: chemical synthesis (no expression host); obtained from Dr. Stephen Kent, The Scripps Research Institute
Protocol: Typical reactions were carried out at room temperature (25° C.) in 150 μl total volumes of 100 mM MES buffer, pH 6.2, containing 1 mM ethylenediaminetetraacetic acid (EDTA) and 2 mM dithiothreitol (DTT) plus 0.1 percent (v/v) Triton X-100.
Synthetic HIV-1 protease [0.5 μg, obtained from Dr. Stephen Kent of The Scripps Research Institute; see Cell, 1988, 54; 363-368] was first incubated in buffer with (or without) various concentrations of "inhibitor(s)" for 30 minutes at 25° C. The protease reaction was then initiated by the addition of HIV substrate IV (Bachem Bioscience Inc.) at fixed concentrations (e.g., 100 mg/ml). HIV Substrate IV has the sequence
Lys-Ala-Arg-Val-Nle-p-NO2 Phe-glu-Ala-Nle-NH2 (SEQ ID NO 15)
At three appropriate times (normally 40, 80 and 120 minutes) the hydrolysis was stopped by adding a 40 μl aliquot from the reaction to 40 μl of a prepared quench solution. The quench solution was 1:4 acetonitrile:water (3 percent trifluoroacetic acid; TFA) and contained 150 μM m-toluic acid which served as an HPLC standard. […] Reaction progress was monitored by following the increasing absorbance (peak height) of the substrate IV cleavage product detected at […]. […]

SMILES | inhibition of HIV-1 PR (HIV-1 PR) | inhibition of HIV-2 PR (HIV-2 PR) | t1/2 of inactivation of the protease (HIV-1 protease; 2 mM inhibitor, preincubation, 25° C., pH 6.2) | mode of inhibition of HIV-1 PR (HIV-1 protease; preincubation with 2 mM inhibitor (FIG. 1))
C/C=C/C/C=C/CCC(=O)[C@H]1O[C@H]1C(N)=O [cerulenin] | weakly inhibit | weakly inhibit |  | 
CC(C)(C)OC(=O)N[C@@H](Cc1ccccc1)C1(C)CO1 (stereo partly shown) [Example 2] |  |  | 3 h | competitive and timedependent inactivation
